Reference: US11242370B2, “Neuregulin-4 compounds and methods of use” (Eli Lilly and Company, priority 2019, dated 2022)
Changes are numbered by the printed parent chain. In names and notes the source's numbering stands. Marks after values point to notes of the source that are not given here.

Columns and labels:
[1] = test system: rat model of heart failure with reduced ejection fraction (HFrEF); experiment: Rat MI model, captopril, Example 10 or combination, echocardiography; type: in vivo; set-up: Left Ventricle Diameter (end diastole): unit not given here
Description: A nonclinical efficacy pharmacology study is conducted in a rat model of heart failure with reduced ejection fraction (HFrEF) to evaluate cardiac function and structure changes after captopril treatment, Example 10 treatment or combination treatment.
The left coronary artery is permanently ligated. All rats are individually housed in a temperature and humidity controlled room and maintained on a 12 hour light/dark cycle. Two to three weeks after surgery, rats undergo transthoracic echocardiography for determination of ejection fraction (EF %) and left ventricle dimensions (LVD) using a Vevo 2100 ultrasound system. Rats are randomized across treatment groups according to EF % and LVD.
Measurements of EF % and LVD are expressed as mean values±standard error (SE). Statistical analysis is performed with JMP® 13 software (SAS Institute, Inc.; Cary, N.C.) and Dunnett's Test is used for statistical comparisons across treatment groups. Statistical significance is accepted at P<0.05.
Three weeks after MI surgery, animals are randomized to 2 treatment groups (Placebo or captopril, 2 g/L in drinking water, ad lib) according to EF % and LVD. Three weeks and four weeks after dosing starts, cardiac function (EF %) and structure (LVD) are evaluated by transthoracic echocardiography. Animals are further randomized to additional groups based on cardiac function (EF %) and structure (LVD) to the following groups: Placebo, Example 10, captopril and Example 10+captopril. Animals in the Example 10 groups receive a single injection on week 4 after the 2nd randomization. Cardiac function (EF %) and structure (LVD) are evaluated on week 5 and 6.

[2] = biological target: T1, human HER2 and HER4 (Homo sapiens, UniProt Q15303); experiment: Screening by human HER2-HER4 mediated ERK 1/2 phosphorylation in CHO-hHER2-hHER4 (clone 1H6) cells; type: cell-based; settings: Fc variants as 293F supernatants
T1 construct: expressed in transfected cells
Description: A cell based assay utilizing CHO-K1 cells overexpressing human or rat HER receptors is used to determine activity of NRG4 compounds. CHO-K1 cells (ATCC) are grown in DMEM-F12 3:1 with 5% FBS with 20 mM HEPES, 40 μg/mL L-Proline, lx antibiotics and were split 1:5 every 2-3 days with TripLE Express (Gibco). Cells are transfected with plasmid DNA encoding HER receptors in pairs (hHER2-3, hHER2-4, rHER2-3 and rHER2-4) with Fugene 6 (Promega) according to the manufacturer's instructions. […] Transfected cells are selected with Puromycin (12 ug/ml) and Hygromycin (1 mg/ml) for 3-4 weeks and clonal lines are obtained by limited dilution cloning into 96 well plates. Clonal lines are selected by appropriate gene expression of HER2, HER3 or HER4 by Taqman method. Lines with appropriate receptor expression are confirmed by NRG1 induced phospho-ERK 1/2 responses. Clones are grown up, harvested, aliquoted into cryovials and then frozen under liquid nitrogen for long-term storage.
A phospho-ERK1/2 activity assay is used to determine potencies of NRG4 compounds. The potency of Examples 1-8 and 10 as compared to WT human NRG1 and/or human NRG4 are analyzed in studies measuring stimulation of human HER2-HER4 mediated ERK 1/2 phosphorylation. This assay comprises a CHO-K1 stable line expressing human HER2 and HER4. CHO-hHER2-hHER4 (clone 1H6) cells are routinely cultured in DMEM: F12(3:1), 5% FBS, 40 μg/mL L-Proline, 10 μg/mL puromycin and 1 mg/mL hygromycin at 37° C., 5% CO2. Cells are washed twice with 1×PBS, dissociated with 0.05% trypsin/[…] EDTA and collected by centrifugation at 300×g for 10 m. Cells are re-suspended in maintenance media. 20,000 cells/well, in 30 μL, are seeded into 384 well Poly-D-Lysine cell culture plates (Greiner, Cat No. 781946). Plates are covered with a manufacturer's lid and moved to a 37° C. tissue culture incubator at 5% CO^2, 80%+ humidity and allowed to adhere. After 24 h, media are removed from the plates and replaced with 30 μL serum-free starvation media (Low glucose DMEM with 0.1% BSA) using a Biomek FX liquid handler. Plates are returned to the incubator for 24 h.
hFcNRG4 variants, transiently expressed as 293F supernatants, are prepared in starvation media in a clear 384W plate (Greiner, cat no. 781185) as a 4pt 1:8 serial dilution (dose range averaged between 250 pM to 140000 pM). Media are removed from the cell culture plates and the 30 uL/well prepared variants are stamped into the plates using a Biomek FX liquid handler. Plates are sealed with a foil seal and stimulated for 15 minutes at room temperature on an orbital shaker. Cells are then washed once with 50 uL cold PBS. 30 uL lysis buffer is added to the cells and oscillated for 10 m at RT on an orbital shaker.
Detection of phosphorylation of ERR 1/2 is performed with either an AlphaScreen SureFire phospho-ERK1/2 kit (T202/Y204) (Perkin Elmer, catalog no. TGRES) or an AlphaLISA® SureFire® Ultra™ p ERK1/2 assay kit together with the AlphaScreen Protein. A IgG Detection Kit (Protein-A) (PerkinElmer, catalogue no. 6760617). After lysis of the CHO-K1 cells. 4 μL lysate is transferred to a 384W Alpha Proxiplate (Perkin Elmer, cat no, 6008280) with a 384W Biomek FX. 4 uL positive and negative lysates (Perkin Elmer, TGRES-L) are added to available wells as controls. 5 uL/well acceptor mix (containing anti-phoso-Thr202/Tyr204 antibodies and Protein A conjugated acceptor beads) is added to the plate with a Forumlatrix Mantis. The plate is sealed, spun down for 1 min at 300×g and incubated for 2 hr at room temperature on an orbital shaker. 2 μL/well donor mix (containing strepavidin coated donor beads and biotinylated antibodies to a distal ERK1/2 epitope) is dispensed by Mantis. The plate is sealed, spun down for 1 min at 300×g and incubated for 2 hr at room temperature on an orbital shaker before reading on the Perkin Elmer Envision 2103 Multilabel Reader (HIS Alpha mode, excitation time: 40 ms, total measurement time: 130 ms). […]

[3] = Baseline (before captopril 2 g/L in drinking water)
[4] = Week 3 of captopril 2 g/L in drinking water
[5] = Week 4 (2nd randomization; before the single injection of Example 10)
[6] = Week 5 (single injection of Example 10 on week 4; captopril 2 g/L in drinking water)
[7] = Week 6 (single injection of Example 10 on week 4; captopril 2 g/L in drinking water)
[8] = Table 5, Examples average of two replicates ± standard deviation

C[C@H](CS)C(=O)N1CCC[C@H]1C(=O)O [Captopril, captopril]
Ejection Fraction [1, 3]: 39.1% | Left Ventricle Diameter (end diastole) [1, 3]: 8.66 | Ejection Fraction [1, 4]: 38.4% | Left Ventricle Diameter (end diastole) [1, 4]: 8.57 | Ejection Fraction [1, 5]: 36.1% | Left Ventricle Diameter (end diastole) [1, 5]: 8.64 | Ejection Fraction [1, 6]: 36.2% | Left Ventricle Diameter (end diastole) [1, 6]: 8.64* | Ejection Fraction [1, 7]: 34.6% | Left Ventricle Diameter (end diastole) [1, 7]: 8.71*

B1: Example 3: NRG4 D1G/V22Q, (GGGGS)3 linker, SEQ ID NO: 12, fused to IgG Fc dimer SEQ ID NO: 6 and 7 (protein)
chain 1: GGGGSGGGGSGGGGSGHEEPCGPSHKSFCLNGGLCYQIPTIPSPFCRCVENYTGARCEEVFL
chain 2: ECPPCPAPPVAGPSVFLFPPKPKDTLMISRTPEVTCVVVDVSHEDPEVQFNWYVDGVEVHNAKTKPREEQFNSTFRVVSVLTVVHQDWLNGKEYKCKVSNKGLPAPIEKTISKTKGQPREPQVYTLPPSREEMTKNQVSLWCLVKGFYPSDIAVEWESNGQPENNYKTTPPVLDSDGSFFLYSKLTVDKSRWQQGNVFSCSVMHEALHNHYTQKSLSLSPG
chain 3: B1 chain 2 with W141S, L143A, Y182V
EC50 [2, 8]: 0.29 ± 0.01 nM

B2: Example 7: NRG4 D1G/I26F/E44H, (GGGGS)3 linker, SEQ ID NO: 16, fused to IgG Fc dimer SEQ ID NO: 6 and 7 (protein)
chain 1: B1 chain 1 with Q37V, I41F, E59H
chain 2: B1 chain 2
chain 3: B1 chain 2 with W141S, L143A, Y182V
EC50 ([2]; Table 6): 0.563 nM

B3: Example 6: NRG4 D1G/I26F/E44K, (GGGGS)3 linker, SEQ ID NO: 15, fused to IgG Fc dimer SEQ ID NO: 6 and 7 (protein)
chain 1: B1 chain 1 with Q37V, I41F, E59K
chain 2: B1 chain 2
chain 3: B1 chain 2 with W141S, L143A, Y182V
EC50 ([2]; Table 6): 0.395 nM

B4: Example 2: NRG4 D1G/P8E, (GGGGS)3 linker, SEQ ID NO: 11, fused to IgG Fc dimer SEQ ID NO: 6 and 7 (protein)
chain 1: B1 chain 1 with P23E, Q37V
chain 2: B1 chain 2
chain 3: B1 chain 2 with W141S, L143A, Y182V
EC50 [2, 8]: 2.77 ± 0.39 nM

B5: Example 8: NRG4 D1G/I26F/P8E, (GGGGS)3 linker, SEQ ID NO: 17, fused to IgG Fc dimer SEQ ID NO: 6 and 7 (protein)
chain 1: B1 chain 1 with P23E, Q37V, I41F
chain 2: B1 chain 2
chain 3: B1 chain 2 with W141S, L143A, Y182V
EC50 ([2]; Table 6): 0.403 nM

B6: Example 4: NRG4 D1G/I26F, (GGGGS)3 linker, SEQ ID NO: 13, fused to IgG Fc dimer SEQ ID NO: 6 and 7 (protein)
chain 1: B1 chain 1 with Q37V, I41F
chain 2: B1 chain 2
chain 3: B1 chain 2 with W141S, L143A, Y182V
EC50 [2, 8]: 0.53 ± 0.05 nM

B7: Example 5: NRG4 D1G/E35A, (GGGGS)3 linker, SEQ ID NO: 14, fused to IgG Fc dimer SEQ ID NO: 6 and 7 (protein)
chain 1: B1 chain 1 with Q37V, E50A
chain 2: B1 chain 2
chain 3: B1 chain 2 with W141S, L143A, Y182V
EC50 [2, 8]: 0.84 ± 0.27 nM
